Reference: ChEMBL document CHEMBL4840381, “BRD9 Bifunctional Degraders for Treating Cancer” (ACS Med Chem Lett, 2021)

Biological target: Protein cereblon/Bromodomain-containing protein 9 (Homo sapiens, UniProt Q9H8M2+Q96SW2)
Test: Induction of CRBN-mediated GFP-fused BRD9 (unknown origin) degradation expressed in HEK293-A cells incubated for 24 hrs by flow cytometric analysis
Assay type: cell-based

Sequence of Protein cereblon/Bromodomain-containing protein 9 (Q9H8M2 whole entry, the tested form may be a part): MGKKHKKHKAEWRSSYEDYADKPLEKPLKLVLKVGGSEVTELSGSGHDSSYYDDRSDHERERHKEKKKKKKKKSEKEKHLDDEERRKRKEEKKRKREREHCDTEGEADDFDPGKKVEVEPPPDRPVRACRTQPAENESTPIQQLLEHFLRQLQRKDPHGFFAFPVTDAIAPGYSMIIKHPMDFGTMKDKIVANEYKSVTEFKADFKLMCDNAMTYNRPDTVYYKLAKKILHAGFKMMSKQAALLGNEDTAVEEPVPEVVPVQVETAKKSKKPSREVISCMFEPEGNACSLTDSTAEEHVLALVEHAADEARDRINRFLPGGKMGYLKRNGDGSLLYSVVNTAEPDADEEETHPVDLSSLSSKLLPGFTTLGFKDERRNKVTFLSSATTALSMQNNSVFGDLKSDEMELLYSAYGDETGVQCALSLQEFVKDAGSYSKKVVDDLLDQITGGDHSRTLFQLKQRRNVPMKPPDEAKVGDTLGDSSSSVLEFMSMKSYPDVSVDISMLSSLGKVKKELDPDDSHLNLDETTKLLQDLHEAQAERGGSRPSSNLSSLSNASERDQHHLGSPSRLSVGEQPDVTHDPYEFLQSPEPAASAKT
Sequence of Protein cereblon/Bromodomain-containing protein 9 (Q96SW2 whole entry, the tested form may be a part): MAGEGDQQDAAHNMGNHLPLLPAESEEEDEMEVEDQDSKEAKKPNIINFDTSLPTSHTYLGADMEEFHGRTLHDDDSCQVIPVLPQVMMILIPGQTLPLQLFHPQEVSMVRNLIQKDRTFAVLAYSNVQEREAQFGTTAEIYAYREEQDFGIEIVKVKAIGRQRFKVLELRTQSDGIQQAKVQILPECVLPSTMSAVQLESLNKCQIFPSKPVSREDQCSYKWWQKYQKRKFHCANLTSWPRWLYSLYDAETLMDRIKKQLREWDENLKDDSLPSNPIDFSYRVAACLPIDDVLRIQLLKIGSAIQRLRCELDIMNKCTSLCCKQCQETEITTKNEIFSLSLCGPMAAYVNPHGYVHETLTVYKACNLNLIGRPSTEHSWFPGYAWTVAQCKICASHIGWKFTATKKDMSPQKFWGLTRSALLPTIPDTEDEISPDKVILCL

DC50, 1 nM:
CCCCn1cc(-c2ccc(O[C@H]3CCN(CC4CCN(C(=O)c5ccc(OC)c(N6CCC(=O)NC6=O)c5)CC4)C[C@@H]3F)c(OC)c2)c2ccncc2c1=O
CCCCn1cc(-c2cc(F)c(O[C@H]3CCN(CC4CCN(C(=O)c5ccc(OC)c(N6CCC(=O)NC6=O)c5)CC4)C[C@@H]3F)c(F)c2)c2ccncc2c1=O
COc1cc(-c2cn(C)c(=O)c3cnccc23)cc(OC)c1CCN1CCC(OC2CCN(C(=O)c3ccc(Cl)c(N4CCC(=O)NC4=O)c3)CC2)CC1
CCCCn1cc(-c2cc(OC)c(OC3CCN(CC4CCN(C(=O)c5ccc(Cl)c(N6CCC(=O)NC6=O)c5)CC4)CC3)c(OC)c2)c2ccncc2c1=O
COc1cc(-c2cn(C)c(=O)c(C)c2C)cc(OC)c1CCN1CCC(OC2CCN(C(=O)c3ccc(Cl)c(N4CCC(=O)NC4=O)c3)CC2)CC1
CCCCn1cc(-c2ccc(OC3CCN(CC4CCN(C(=O)c5ccc(Cl)c(N6CCC(=O)NC6=O)c5)CC4)CC3)c(OC)c2)c2ccncc2c1=O
